Laboratory results: patent US5744462A, “Steroids useful as anti-cancer and anti-obesity agents” (Research Corporation Technologies, Inc., priority 1995, dated 1998)

How the values were obtained:
mouse skin DNA = assay: (3H) DMBA binding to skin DNA; assay type: in vivo, mouse (A/J); conditions: for effect on 3H-DMBA binding to skin DNA: mice
[1] = topical, complete carcinogenesis model; cited from earlier work
[2] = test system: mouse epidermis (TPA stimulated 3H-thymidine incorporation); assay: TPA stimulation of 3H-thymidine incorporation in mouse epidermis, oral steroid; assay type: in vivo, mouse (male ICR)
Procedure: Tumor promoters, such as TPA, stimulate hyperplasia and DNA synthesis when applied to the skin, and it is believed that this stimulation is an important step in the enhancement of tumorigenesis.
Male ICR mice were orally intubated with steroid suspended in sesame oil (0.5 ml/mouse) at the indicated dose. Mice not receiving steroid were given sesame oil alone. One hour later mice received topical application of TPA and 20 hours later the rate of ^3 H-thymidine incorporation into the epidermis was determined as described in Pashko, L. L., Schwartz, A. G., Abou-Gharbia, M., and Swern, D. (1981), Inhibition of DNA synthesis in mouse epidermis and breast epithelium by dehydroepiandrosterone and related steroids, Carcinogenesis, 2,-717-721.
Experimental conditions are the same as in Table 3.

[3] = test system: cultured rat kidney epithelial cell line; conditions: cited from earlier work
[4] = Anti-weight effect in mice, general statements; assay type: in vivo, mouse
Excerpt: (Table 9 vs Table 5 and Table 6). […] Thus the cancer preventive the cancer preventive effect of DHEA may result indirectly from its anti-weight action rather than from a direct effect of DHEA or target cells.

[5] = daily approximately 400 mg/kg, long-term; cited from earlier work
liver catalase = assay: Liver catalase activity after three weeks of diet treatment; assay type: in vivo, mouse (female Balb/c)
Procedure: Female Balb/c mice were housed in polycarbonate cages (6/mice/cage) in animal quarters maintained at 24°±1° C. with 12 hours of light and 12 hours of dark each day. The mice were placed on a diet containing either DHEA, 8354, A, B clofibrate or with no addition. Three weeks later the mice were killed, the livers were perfused with cold saline, weighed, and 5% liver homogenates were prepared for the determination of catalase activity by the spectrophotometric method of Luck (H. Luck, in Method in Enzyme Analysis, H. U. Bergmeyer, Ed. (Verlag Chemie, Weinheim/Bergstrasse, Germany, 1965)). Total protein was measured by the method of Lowry, et al. (O. H. Lowry, N. J. Rosebrough, A. L. Farr, R. J. Randall, J. Biol. Chem., 193, 265 (1951)).

[6] = Estrogenic and anti-estrogenic activity, uterine weight; assay type: in vivo, rat (female CD); conditions: 60 mg/kg s.c. for 3 days, DHEA significantly greater than control
Procedure: Estrogenic and Anti-Estrogenic Activity
Female CD rats, 26-27 days old, were injected subcutaneously for 3 days with one of the compounds of the present invention at 60 mg/kg in propylene glycol. Controls received propylene glycol alone. On the 4th day, the rats were killed and the uteri were dissected out and weighed.

mouse epidermis = conditions: cited from earlier work
[7] = DMBA-initiated and TPA-promoted; cited from earlier work
[8] = Body weight and food consumption in the DMBA binding experiment; assay type: in vivo, mouse; conditions: two weeks of feeding
Procedure: Binding of [^3 H]DMBA to mouse skin DNA was determined as described in Pashko, L. L., and Schwartz, A. G. (1983), Effect of food restriction, dehydroepiandrosterone, or obesity on the binding of ^3 H-7,12-dimethylbenz(a)anthracene to mouse skin DNA, J. Gerontol., 38, 8-12. Values are mean±SD for 3 individual determinations, with pooled tissue from 2 mice used for each determination. DHEA or testosterone (400 ug in 0.2 ml acetone) was applied to the skin one hour before [^3 H]DMBA. The mean weight of the food restricted mice was 18.5±1.0 gm, n=6, of the ad libitum fed, 27.4±1.0 gm, n=6, of the ad libitum fed treated with DHEA, 28.2±0.9 gm, n=6, and of the ad libitum fed treated with testosterone, 28.3±0.9 gm, n=6, following two weeks of feeding. The average food consumed was, in gm/mouse/day, 2.2, 3.8, 3.8 and 4.0 for the food restricted, ad libitum fed, ad libitum fed plus DHEA, and ad libitum fed plus testosterone groups, respectively.

[9] = without suppressing appetite; cited from earlier work
[10] = oral; cited from earlier work
[11] = Anti-obesity action, body weight, male A/J mice; assay type: in vivo, mouse (male A/J); conditions: 0.45% in diet
Procedure: Male A/J (5 weeks old) mice were obtained from the
Jackson Laboratory and were housed in polycarbonate cages (6
mice/cage) in animal quarters maintained at 24 ± 1° C. with 12
hours of light and 12 hours of darkness each day. One week
after arrival, the mice were placed on a diet containing
either DHEA, 8353, or without steroid. Animals were weighed

[12] = test system: mammalian glucose-6-phosphate dehydrogenase (G6PDH); conditions: cited from earlier work
[13] = target: purified bovine adrenal G6PDH (Bos taurus, UniProt F1MMK2); assay: G6PDH inhibition test; assay type: biochemical; conditions: individual determinations
Chain of purified bovine adrenal G6PDH (F1MMK2 31-70): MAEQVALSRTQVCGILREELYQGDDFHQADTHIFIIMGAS
Chain of purified bovine adrenal G6PDH (F1MMK2 101-575): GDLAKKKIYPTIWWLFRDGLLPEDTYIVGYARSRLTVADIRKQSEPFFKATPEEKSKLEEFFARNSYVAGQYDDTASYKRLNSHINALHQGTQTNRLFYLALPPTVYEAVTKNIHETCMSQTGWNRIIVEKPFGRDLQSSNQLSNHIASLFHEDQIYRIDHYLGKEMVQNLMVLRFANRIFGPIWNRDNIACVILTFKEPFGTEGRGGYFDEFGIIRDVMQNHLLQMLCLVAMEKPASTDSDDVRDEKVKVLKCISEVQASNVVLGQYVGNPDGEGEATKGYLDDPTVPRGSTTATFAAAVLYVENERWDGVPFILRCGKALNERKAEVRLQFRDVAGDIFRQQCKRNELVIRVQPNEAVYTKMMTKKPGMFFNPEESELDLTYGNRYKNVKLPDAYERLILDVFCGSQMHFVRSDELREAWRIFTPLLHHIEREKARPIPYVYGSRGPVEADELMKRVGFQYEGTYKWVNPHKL
Excerpt: The compound listed below are screened as inhibitors of purified bovine adrenal G6PDH activity as one predictor of cancer preventive action. The assay for testing the inhibition of purified bovine adrenal G6PDH is according to the procedure by Oertell, G. W. and Rebelein, I. in Biochem. Biophys. Acta, 184, 459-460 (1969).

[14] = test system: many different cell lines; conditions: 10^-5 M to 10^-4 M; cited from earlier work

C[C@]12CC[C@H](O)CC1=CC[C@@H]1[C@@H]2CC[C@]2(C)C(=O)CC[C@@H]12 [DHEA, Dehydroepiandrosterone]
SPECIFIC ACTIVITY, (3H) DMBA binding to skin DNA (mouse skin DNA; 400 ug topical one hour before DMBA, ad libitum fed 116 ± 5.2): 66 ± 13 cpm/ug DNA
effect on 3H-DMBA binding to skin DNA (mouse skin DNA; four weeks, 400 mg/kg): does inhibit ^3 H-DMBA binding to skin DNA
effect on 3H-DMBA binding to skin DNA (mouse skin DNA; oral, doses well below 400 mg/kg): inactive
effect on 3H-DMBA binding to skin DNA (mouse skin DNA; single administration, 400 mg/kg): does not inhibit ^3 H-DMBA binding to skin DNA
effect on rate of binding of 3H-DMBA to skin DNA (mouse skin DNA; topical, in words (Table 4)): inhibits the rate of binding
DMBA produced papillomas and carcinomas [1]: inhibits DMBA produced papillomas and carcinomas
SPECIFIC ACTIVITY, TPA stimulated 3H-thymidine incorporation ([2]; Table 9, oral 400 mg/kg, no steroid 55.1, TPA alone 118): 50.9 ± 3.2 cpm/ug DNA
effect on TPA stimulation in 3H-thymidine incorporation ([2]; oral, mice, doses well below 400 mg/kg, comparable to food restriction): inactive
effect on TPA stimulation of 3H-thymidine incorporation ([2]; single administration, 400 mg/kg, mice, compared with food restriction or topical 400 ug DHEA): does not inhibit the TPA stimulation in epidermal ^3 H-thymidine incorporation to a degree comparable
capacity of TPA to stimulate 3H-thymidine incorporation [3]: antagonizes
anti-weight effect ([4]; approximately 400 mg/kg daily, repeatedly over a few weeks): produces an anti-weight effect
effect on weight: cause of the anti-weight effect ([4]; four weeks, 400 mg/kg): due to both a reduction in food intake and to a decrease in the efficiency of food utilization
development of breast, lung, and colon tumors [5]: inhibit the development of breast, lung, and colon tumors
CATALASE ACTIVITY (liver catalase; 0.25% of diet, control 31.1 ± 6.7, DHEA p < 0.05, clofibrate p < 0.001 vs control): 97.8 ± 24 Units per mg protein
increase in liver catalase specific activity (liver catalase; 0.25%, vs control): threefold
catalase activity, in words (liver catalase; mice, 0.25% of diet): stimulated catalase activity
Mean Uterine Weight ± S.D. ([6]; control 2.02 ± 0.28, p < .001): 4.17 ± 0.48 mg/100 gm body weight
Mean Uterine Weigh ± S.D. ([6]; Table 2a, control 1.95 ± 0.22, p < 0.001): 3.93 ± 0.71
capacity of TPA to stimulate 3H-thymidine incorporation (mouse epidermis): antagonizes
skin papilloma formation [7]: inhibit
mean body weight ([8]; topical 400 ug, ad libitum fed 27.4±1.0): 28.2±0.9 gm
average food consumed ([8]; ad libitum fed 3.8): 3.8 gm/mouse/day
effect on obesity on long-term administration [9]: prevented the development of obesity without suppressing appetite
survival [10]: prolonged the survival
mean weekly weight ± S.D. ([11]; week 0, control 23 ± 1.5): 23.0 ± 1.5 grams
mean weekly weight ± S.D. ([11]; week 1, control 25.0 ± 1.6): 22.8 ± 1.5 grams
mean weekly weight ± S.D. ([11]; week 2, control 27.0 ± 1.6): 19.0 ± 1.5 grams
mean weekly weight ± S.D. ([11]; week 3, control 27.3 ± 1.6): 21.5 ± 1.1 grams
mean weekly weight ± S.D. ([11]; week 4, control 27.5 ± 1.9): 21.4 ± 1.2 grams
inhibition of mammalian G6PDH [12]: potent non-competitive inhibitor
Percent Inhibition of G6PDH ([13]; 10^-5 M): 57%
inhibition at 10 µM ([13]; 10^-5 M, read-out: Percent Inhibition of G6PDH): 53%
inhibition at 1 µM ([13]; 10^-6 M, read-out: Percent Inhibition of G6PDH): 17%
growth of cell lines in culture [14]: slows the growth of many different cell lines in culture
